# Literature values, collected in patent US20200077661A1, “METHOD AND "IDEPS" COMPOSITION FOR DESTROYING MICROORGANISMS IN A SESSILE STATE” (IDEPS GMBH, priority 2016, published 2020).
# Tested on: coagulase-negative staphylococci
substance,measurement,setting,value
varnerin,destruction of the exopolymeric matrix,"16-128 μg/ml varnerin for 10 μg of biofilm, incubation at 37° C. for 24 hours",partial destruction
same,bacterial cells die,"16-128 μg/ml varnerin for 10 μg of biofilm, incubation at 37° C. for 24 hours, biofilm formed within 24 hours",up to 30%
same,bacteria in the young biofilm not eliminated,young biofilm (24 hours old),up to 70%
